The values below come from patent publication US8653263B2 (Janssen Pharmaceutica, priority 2009, dated 2014).

pKi: −log10 of the molar value.

Chain of human orexin-2 receptor (O43614 whole entry): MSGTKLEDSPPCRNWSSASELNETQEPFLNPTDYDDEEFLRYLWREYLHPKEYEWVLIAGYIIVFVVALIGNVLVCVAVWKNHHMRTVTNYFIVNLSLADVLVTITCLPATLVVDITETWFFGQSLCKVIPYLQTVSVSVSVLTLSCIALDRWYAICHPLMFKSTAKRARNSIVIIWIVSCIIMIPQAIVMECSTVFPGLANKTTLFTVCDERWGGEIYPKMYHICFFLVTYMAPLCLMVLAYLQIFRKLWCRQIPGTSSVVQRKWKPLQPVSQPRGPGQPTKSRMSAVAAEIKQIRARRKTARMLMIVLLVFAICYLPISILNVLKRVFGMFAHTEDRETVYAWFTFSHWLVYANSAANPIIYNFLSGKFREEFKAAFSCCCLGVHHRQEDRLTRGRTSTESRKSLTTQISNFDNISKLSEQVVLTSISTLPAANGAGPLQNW

This test has as its target human orexin-2 receptor (Homo sapiens (Human), UniProt O43614). Kind of test: Human orexin 2 receptor radioligand binding ([3H]-EMPA competition). The settings on record: HEK293 cells stably expressing human orexin-2 receptor; [3H]-EMPA 5 nM final; apparent Ki=IC50/(1+C/Kd), Kd=2 nM; read-out: OR 2 Ki.
Usually pKi stands for −log10 of the Ki, conventionally taken in molar units. Regarding `Cc1cc(C)nc(N2CC3CN(C(=O)c4ccccc4-c4ncc[nH]4)CC3C2)n1` (stereo not drawn) [Example 182, [5-(4,6-Dimethyl-pyrimidin-2-yl)-hexahydro-pyrrolo[3,4-c]pyrrol-2-yl]-[2-(1H-imidazol-2-yl)-phenyl]-methanone], the pKi was 5.66.
To `Cc1ccc(-c2ccc(F)cc2C(=O)N2CC3CN(c4nc(C)cc(C)n4)CC3C2)nc1` (stereo not drawn) [Example 401, (5-(4,6-Dimethylpyrimidin-2-yl)hexahydropyrrolo[3,4-c]pyrrol-2(1H)-yl)(5-fluoro-2-(5-methylpyridin-2-yl)phenyl)methanone] belongs 6.08; to `Cc1cc(C)nc(N2CC3CN(C(=O)c4ccccc4C#N)CC3C2)n1` (stereo not drawn) [Example 202, 2-[5-(4,6-Dimethyl-pyrimidin-2-yl)-hexahydro-pyrrolo[3,4-c]pyrrole-2-carbonyl]-benzonitrile], 5.30.
To `COc1cc(Cl)ccc1C(=O)N1CC2CN(c3nc(C)cc(C)n3)CC2C1` (stereo not drawn) [Example 222, 2-[(4-Chloro-2-methoxyphenyl)carbonyl]-5-(4,6-dimethylpyrimidin-2-yl)octahydropyrrolo[3,4-c]pyrrole] belongs 5.44; to `CN(C)c1cc(N2CC3CN(C(=O)c4cc(F)ccc4-n4nccn4)CC3C2)nc(C(F)(F)F)n1` (stereo not drawn) [Example 9, 6-[5-{[5-Fluoro-2-(2H-1,2,3-triazol-2-yl)phenyl]carbonyl}hexahydropyrrolo[3,4-c]pyrrol-2(1H)-yl]-N,N-dimethyl-2-(trifluoromethyl)pyrimidin-4-amine], 7.00.
To `Cc1cc(C)nc(N2CC3CN(S(=O)(=O)c4ccccc4-c4ccccc4)CC3C2)n1` (stereo not drawn) [Example 358, 2-([1,1′-Biphenyl]-2-ylsulfonyl)-5-(4,6-dimethylpyrimidin-2-yl)octahydropyrrolo[3,4-c]pyrrole] belongs 6.64; to `O=C(c1ccccc1-c1cccnc1)N1CC2CN(c3cnc4ccccc4n3)CC2C1` (stereo not drawn) [Example 181, (2-Pyridin-3-yl-phenyl)-(5-quinoxalin-2-yl-hexahydro-pyrrolo[3,4-c]pyrrol-2-yl)-methanone], 5.45; to `Cc1cc(C)nc(N2CC3CN(C(=O)c4cc(F)ccc4-c4ccccn4)CC3C2)n1` (stereo not drawn) [Example 403, (5-(4,6-Dimethylpyrimidin-2-yl)hexahydropyrrolo[3,4-c]pyrrol-2(1H)-yl)(5-fluoro-2-(pyridin-2-yl)phenyl)methanone], 6.74.
On to `O=C(c1ccccc1-c1ccccc1)N1CC2CN(c3nccc(-c4cccs4)n3)CC2C1` (stereo not drawn) [Example 38, 2-(Biphenyl-2-ylcarbonyl)-5-(4-thiophen-2-ylpyrimidin-2-yl)octahydropyrrolo[3,4-c]pyrrole], for which the pKi was 6.29.
Turning to `COc1ccc(C(=O)N2CC3CN(c4nccc(-c5ccccc5)n4)CC3C2)c(OC)c1` (stereo not drawn) [Example 167, 2-[(2,4-Dimethoxyphenyl)carbonyl]-5-(4-phenylpyrimidin-2-yl)octahydropyrrolo[3,4-c]pyrrole], the pKi is 6.39.
The figure for `O=C(c1ccccc1-c1cccs1)N1CC2CN(c3nccc(-c4cccs4)n3)CC2C1` (stereo not drawn) [Example 37, 2-[(2-Thiophen-2-ylphenyl)carbonyl]-5-(4-thiophen-2-ylpyrimidin-2-yl)octahydro-pyrrolo[3,4-c]pyrrole] is 6.74; for `Cc1cc(C)nc(N2CC3CN(C(=O)c4ncccc4-c4nc(C)no4)CC3C2)n1` (stereo not drawn) [Example 386, 2-(4,6-Dimethylpyrimidin-2-yl)-5-{[3-(3-methyl-1,2,4-oxadiazol-5-yl)pyridin-2-yl]carbonyl}octahydropyrrolo[3,4-c]pyrrole] it is 6.03.
To `Cc1cc(N2CC3CN(C(=O)c4ccc(F)cc4-n4nccn4)CC3C2)nc(C(F)(F)F)n1` (stereo not drawn) [Example 99, 2-{[4-Fluoro-2-(2H-1,2,3-triazol-2-yl)phenyl]carbonyl}-5-[6-methyl-2-(trifluoromethyl)pyrimidin-4-yl]octahydropyrrolo[3,4-c]pyrrole] belongs 7.82; to `COc1ccccc1S(=O)(=O)N1CC2CN(c3ccc(C(F)(F)F)cn3)CC2C1` (stereo not drawn) [Example 361, 2-((2-Methoxyphenyl)sulfonyl)-5-(5-(trifluoromethyl)pyridin-2-yl)octahydropyrrolo[3,4-c]pyrrole], 5.36; to `Cc1cc(C)nc(N2CC3CN(C(=O)c4c(F)cccc4-c4nc(C)no4)CC3C2)n1` (stereo not drawn) [Example 315, 2-(4,6-Dimethylpyrimidin-2-yl)-5-{[2-fluoro-6-(3-methyl-1,2,4-oxadiazol-5-yl)phenyl]carbonyl}octahydropyrrolo[3,4-c]pyrrole], 7.42.
To `Cc1nc(N2CC3CN(C(=O)c4ccccc4-c4nnc[nH]4)CC3C2)nc(C)c1C` (stereo not drawn) [Example 305, 2-{[2-(4H-1,2,4-Triazol-3-yl)phenyl]carbonyl}-5-(4,5,6-trimethylpyrimidin-2-yl)octahydropyrrolo[3,4-c]pyrrole] belongs 8.15; to `Cc1cc(C)nc(N2CC3CN(C(=O)c4cccc(F)c4-c4ncccn4)CC3C2)n1` (stereo not drawn) [Example 283, 2-(4,6-Dimethylpyrimidin-2-yl)-5-[(3-fluoro-2-pyrimidin-2-ylphenyl)carbonyl]octahydropyrrolo[3,4-c]pyrrole], 8.00; to `CN(C)c1nc(N2CC3CN(C(=O)c4c(F)cccc4-n4nccn4)CC3C2)cc(C(F)(F)F)n1` (stereo not drawn) [Example 106, 4-[5-{[2-Fluoro-6-(2H-1,2,3-triazol-2-yl)phenyl]carbonyl}hexahydropyrrolo[3,4-c]pyrrol-2(1H)-yl]-N,N-dimethyl-6-(trifluoromethyl)pyrimidin-2-amine], 7.59.
With `Cc1nc2ccccc2nc1N1CC2CN(C(=O)c3ccccc3-c3ccccc3)CC2C1` (stereo not drawn) [Example 66, 2-[5-(Biphenyl-2-ylcarbonyl)hexahydropyrrolo[3,4-c]pyrrol-2(1H)-yl]-3-methylquinoxaline], the pKi is 6.35.
The figure for `COc1ccc(C(=O)N2CC3CN(c4nc(C)cc(C)n4)CC3C2)c(C)c1` (stereo not drawn) [Example 277, (5-(4,6-Dimethylpyrimidin-2-yl)hexahydropyrrolo[3,4-c]pyrrol-2(1H)-yl)(4-methoxy-2-methylphenyl)methanone] is 6.17; for `COc1ccc(C(=O)N2CC3CN(c4cc(C)c5ccccc5n4)CC3C2)c(OC)c1` (stereo not drawn) [Example 170, 2-{5-[(2,4-Dimethoxyphenyl)carbonyl]hexahydropyrrolo[3,4-c]pyrrol-2(1H)-yl}-4-methylquinoline] it is 6.02.
To `O=C(c1ccccc1-n1cccn1)N1CC2CN(c3cnc4ccccc4n3)CC2C1` (stereo not drawn) [Example 18, 2-[5-{[2-(1H-Pyrazol-1-yl)phenyl]carbonyl}hexahydropyrrolo[3,4-c]pyrrol-2(1H)-yl]quinoxaline] belongs 6.28; to `Cc1cc(N2CC3CN(C(=O)c4nc(C)sc4-c4ccc(F)cc4)CC3C2)nc(C)n1` (stereo not drawn) [Example 253, 2-(2,6-Dimethylpyrimidin-4-yl)-5-{[5-(4-fluorophenyl)-2-methyl-1,3-thiazol-4-yl]carbonyl}octahydropyrrolo[3,4-c]pyrrole], 5.30.
The figure for `CN(C)c1nc(N2CC3CN(C(=O)c4ccccc4-n4nccn4)CC3C2)cc(C(F)(F)F)n1` (stereo not drawn) [Example 121, N,N-Dimethyl-4-[5-{[2-(2H-1,2,3-triazol-2-yl)phenyl]carbonyl}hexahydropyrrolo[3,4-c]pyrrol-2(1H)-yl]-6-(trifluoromethyl)pyrimidin-2-amine] is 7.82; for `Cc1nc(N2CC3CN(C(=O)c4cccc(F)c4-c4ncccn4)CC3C2)nc(C)c1C` (stereo not drawn) [Example 239, (3-Fluoro-2-(pyrimidin-2-yl)phenyl)(5-(4,5,6-trimethylpyrimidin-2-yl)hexahydropyrrolo[3,4-c]pyrrol-2(1H)-yl)methanone] it is 8.15; for `Cc1cc(C)nc(N2CC3CN(C(=O)c4cc(F)ccc4C)CC3C2)n1` (stereo not drawn) [Example 226, 2-(4,6-Dimethylpyrimidin-2-yl)-5-[(5-fluoro-2-methylphenyl)carbonyl]octahydropyrrolo[3,4-c]pyrrole] it is 6.08.
Turning to `Cc1cnc(C)c(N2CC3CN(C(=O)c4ccccc4-c4ncn[nH]4)CC3C2)n1` (stereo not drawn) [Example 213, [5-(3,6-Dimethyl-pyrazin-2-yl)-hexahydro-pyrrolo[3,4-c]pyrrol-2-yl]-[2-(2H-[1,2,4]triazol-3-yl)-phenyl]-methanone], the pKi is 7.25.
To `COc1ccc(C(=O)N2CC3CN(c4nc5ccc(OC)cc5s4)CC3C2)c(OC)c1` (stereo not drawn) [Example 171, 2-{5-[(2,4-Dimethoxyphenyl)carbonyl]hexahydropyrrolo[3,4-c]pyrrol-2(1H)-yl}-6-methoxy-1,3-benzothiazole] belongs 6.11; to `O=C(c1ccccc1-c1cccs1)N1CC2CN(c3nc4ccc(F)cc4s3)CC2C1` (stereo not drawn) [Example 46, 6-Fluoro-2-{5-[(2-thiophen-2-ylphenyl)carbonyl]hexahydropyrrolo[3,4-c]pyrrol-2(1H)-yl}-1,3-benzothiazole], 6.88.
The figure for `Cc1cc(C)nc(N2CC3CN(C(=O)c4cccc(F)c4-c4ncco4)CC3C2)n1` (stereo not drawn) [Example 376, (5-(4,6-Dimethylpyrimidin-2-yl)hexahydropyrrolo[3,4-c]pyrrol-2(1H)-yl)(3-fluoro-2-(oxazol-2-yl)phenyl)methanone] is 7.77.
For `COc1ccnc(N2CC3CN(C(=O)c4ccccc4-c4ccccc4)CC3C2)n1` (stereo not drawn) [Example 177, 2-(Biphenyl-2-ylcarbonyl)-5-(4-methoxypyrimidin-2-yl)octahydropyrrolo[3,4-c]pyrrole], the pKi is 6.47.
The figure for `O=C(c1c(F)cccc1-n1nccn1)N1CC2CN(c3cnc4cc(F)c(F)cc4n3)CC2C1` (stereo not drawn) [Example 246, (5-(6,7-Difluoroquinoxalin-2-yl)hexahydropyrrolo[3,4-c]pyrrol-2(1H)-yl)(2-fluoro-6-(2H-1,2,3-triazol-2-yl)phenyl)methanone] is 7.96.
To `COc1cc(N2CC3CN(C(=O)c4cc(F)ccc4-n4nccn4)CC3C2)nc(N(C)C)n1` (stereo not drawn) [Example 4, 4-[5-{[5-Fluoro-2-(2H-1,2,3-triazol-2-yl)phenyl]carbonyl}hexahydropyrrolo[3,4-c]pyrrol-2(1H)-yl]-6-methoxy-N,N-dimethylpyrimidin-2-amine] belongs 7.19.
